Results on three compounds are retold here after patent publication US5827837A, “Polyanion anti-inflammatory agents” (priority 1996, dated 1998).

One assay concerns the target T1, P-selectin (P-COS) (Homo sapiens, UniProt P16109).
T1 construct: adhesion of human PMN or HL60
T1 sequence (P16109 42-830): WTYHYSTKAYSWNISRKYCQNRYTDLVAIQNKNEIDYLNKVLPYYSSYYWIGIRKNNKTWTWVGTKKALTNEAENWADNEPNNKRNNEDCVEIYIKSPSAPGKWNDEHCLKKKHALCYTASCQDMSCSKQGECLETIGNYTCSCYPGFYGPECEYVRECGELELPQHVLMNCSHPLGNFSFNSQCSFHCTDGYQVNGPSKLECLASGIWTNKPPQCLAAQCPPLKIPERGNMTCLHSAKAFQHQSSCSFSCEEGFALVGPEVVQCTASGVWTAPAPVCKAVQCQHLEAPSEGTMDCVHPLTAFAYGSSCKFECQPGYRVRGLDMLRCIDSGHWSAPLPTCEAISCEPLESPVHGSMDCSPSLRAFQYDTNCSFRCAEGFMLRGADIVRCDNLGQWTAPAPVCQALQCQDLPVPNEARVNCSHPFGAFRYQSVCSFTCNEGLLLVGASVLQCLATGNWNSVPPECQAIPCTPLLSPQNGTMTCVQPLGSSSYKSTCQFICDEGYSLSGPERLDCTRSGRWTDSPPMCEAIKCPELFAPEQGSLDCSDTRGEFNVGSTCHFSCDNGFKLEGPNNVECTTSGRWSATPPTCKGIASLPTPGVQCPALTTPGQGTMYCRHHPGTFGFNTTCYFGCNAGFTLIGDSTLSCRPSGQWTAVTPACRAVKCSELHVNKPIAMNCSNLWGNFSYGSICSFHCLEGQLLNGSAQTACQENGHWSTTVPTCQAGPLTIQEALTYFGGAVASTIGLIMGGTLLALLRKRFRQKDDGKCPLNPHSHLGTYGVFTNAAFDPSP
Nature of the assay: PMN adhesion to P-selectin transfected COS cells (P-COS). Type of assay: cell-based. The conditions noted are these: for PMN adhesion to P-selectin transfected COS: inositol up to 10 mM, InsP6 0.5 mM. The protocol: COS-1 cells were transfected as described (Seed, B., et al., Proc. Natl. Acad. Sci., U.S.A., 84:3365, 1987; Aruffo, A., Current Protocols In Molecular Biology, eds. supra, 1992) with pCDM7/pCDM8 expression vectors containing the full-length E-, P- and L-selectin cDNA. Transfected COS-1 cells were seeded on gelatin coated coverslips.

Assay [1] addresses T2, P-selectin-lg fusion protein (Homo sapiens, UniProt P16109).
T2 construct: Each selectin-lg contains the lectin domain, epidermal growth factor domain, and one (L-selectin-lg), two (P-selectin-lg) or six (E-selectin-lg) complement regulatory repeats; made in house
Nature of the assay: Competition ELISA: binding of P-selectin-Ig to immobilized BSA-sLe^x. The conditions noted are these: for IC50: read-out: IC50, P-selectin binding. The source says: Selectin-lg fusion proteins are recombinant chimeric molecules containing extracellular regions of selectins coupled to the hinge, CH2, and CH3 regions of human IgG1 (Aruffo, A., et al., Cell, 67:35, 1991; Walz, G., et al., Science, 250:1132, 1990). Each selectin-lg contains the lectin domain, epidermal growth factor domain, and one (L-selectin-lg), two (P-selectin-lg) or six (E-selectin-lg) complement regulatory repeats of the parent molecules. DNAs encoding selectin-Ig inserted in pCDM7 allowed transient expression of recombinant proteins in COS cells as previously described (Seed, B., et al., Proc. Natl. Acad. Sci., U.S.A., 84:3365, 1987; Aruffo, A., Current Protocols In Molecular Biology, eds. Ausubel, F. M., et al, 16:13.1, Greene Publishing Associates and Wiley-lnterscience, New York, N.Y., 1992). These DNAs were also ligated into pNUT (Palmiter, R. D., et al, Cell, 50:435, 1987) for amplification and stable expression in BHK cells. The fusion proteins were affinity purified from culture media using protein A (Pierce Chemical Company, Rockford, Ill.) or protein G (Pharmacia, Piscataway, N.J.) Sepharose, as previously described (Aruffo, A., et al., Cell, 67:35, 1991; Aruffo, A., Current Protocols In Molecular Biology, eds. Ausubel, F. M., et al, supra, 1992). Competition binding ELISAs using P- and E-selectin-lg were performed essentially as described (Nelson, R. M., et al., J. Clin. Invest., 91:1157, 1993), except that the assay buffer was 20 mM HEPES pH 7.4, 150 mM NaCl, 2 mM CaCl2, and 0.25 mM thimerosal, containing 10 mg/ml BSA, protease-free, (Miles Inc., Kankakee, Ill.). Selectin concentrations were from 10 to 30 nM. […] To increase L-selectin binding, an assay similar to that previously described was used (Foxall, C., et al., J. Cell Biol., 117:895, 1992), in which the L-selectin-lg (10-20 nM) was allowed to form aggregates with HRP-conjugated anti-lg antibody for 30 minutes prior to addition of inositols and incubation on the BSA-sLe^x -coated plate. IC50 values were calculated by fitting binding data to the equation: fraction of maximal binding=IC50 […] using nonlinear least squares analysis software (Origin, Microcal Inc, Northampton, Mass.). InsP6 (dodecasodium salt), InsS6 (hexapotassium salt), myo-inositol 1 monophosphate (cyclohexylammonium salt), and myo-inositol were from Sigma Chemical Company (St. Louis, Mo.). Stock solutions were prepared daily in 0.9% NaCl and sterilized by 0.22 μm filtration. InsP6 solutions were adjusted at pH 7.4 with HCl.
L-, P-, or E-selectin-lg fusion proteins were incubated for 2-3 hours on microtiter plates coated with the neoglycoprotein BSA-sLe^x, the plates washed, and bound selectin-lg was detected using a peroxidase-conjugated antibody directed against the lg portion and a chromogenic substrate. To determine blocking activity, solution-phase lnsP6 (.circle-solid.), InsS6 (.largecircle.), or inositol (.box-solid.) at the indicated concentrations were added to the solutions containing selectin-Ig fusion proteins prior to transfer to microtiter plates (competition ELISA).
(An ELISA detects its analyte on a solid surface through an enzyme-linked reagent.)

T2 sequence (P16109 with tags, fused parts or gaps limits assumed): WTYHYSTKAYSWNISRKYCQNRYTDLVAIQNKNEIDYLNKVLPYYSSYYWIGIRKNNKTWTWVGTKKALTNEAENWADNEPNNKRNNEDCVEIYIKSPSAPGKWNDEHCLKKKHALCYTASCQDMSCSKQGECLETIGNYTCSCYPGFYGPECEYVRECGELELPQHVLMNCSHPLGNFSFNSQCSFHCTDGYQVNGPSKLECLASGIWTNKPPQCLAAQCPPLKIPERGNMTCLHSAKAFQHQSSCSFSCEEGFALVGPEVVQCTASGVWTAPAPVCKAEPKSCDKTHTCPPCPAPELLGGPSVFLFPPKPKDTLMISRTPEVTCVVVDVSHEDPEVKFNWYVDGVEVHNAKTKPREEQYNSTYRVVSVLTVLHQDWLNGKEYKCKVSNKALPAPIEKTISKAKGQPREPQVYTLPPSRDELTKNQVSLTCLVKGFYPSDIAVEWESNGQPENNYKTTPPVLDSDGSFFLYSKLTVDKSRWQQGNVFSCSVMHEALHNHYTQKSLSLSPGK

Regarding `O=P(O)(O)O[C@H]1[C@H](OP(=O)(O)O)[C@@H](OP(=O)(O)O)[C@H](OP(=O)(O)O)[C@@H](OP(=O)(O)O)[C@H]1OP(=O)(O)O` [InsP6, myo-inositol hexakisphosphate], at P-selectin (P-COS), the “PMN adhesion to P-selectin transfected COS” value is listed as “blocked PMN adhesion to P-COS”. The IC50 in assay [1] (BSA-sLe^x competition ELISA) is 160 ± 40 µM. The “blocking of P-selectin-Ig at reduced Ca^2+” value in assay [1] (Ca^2+ reduced to 0.15 mM) is “not enhanced”.

Regarding `O=S(=O)(O)O[C@H]1[C@H](OS(=O)(=O)O)[C@@H](OS(=O)(=O)O)[C@H](OS(=O)(=O)O)[C@@H](OS(=O)(=O)O)[C@H]1OS(=O)(=O)O` [InsS6, myo-inositol hexakissulfate], at P-selectin (P-COS) (COS, 5 mM, read-out: blocking of PMN adhesion to P-selectin transfected COS), the inhibition at 5000 µM is 63%. Besides, in assay [1] (BSA-sLe^x competition ELISA), the IC50 turned out to be 3200 ± 500 µM.

Regarding `O[C@H]1[C@H](O)[C@@H](O)[C@H](O)[C@@H](O)[C@H]1O` [myo-inositol, reference compound], at P-selectin (P-COS), the “PMN adhesion to P-selectin transfected COS” value is “no effect at concentrations up to 10 mM”. For the same compound, the “blocking of P-selectin-Ig binding” value in assay [1] (BSA-sLe^x competition ELISA) was “not myo-isositol, blocked binding”.

The term IC50 denotes the concentration needed to halve the response being measured.
